From US20160009693A1, “HERBICIDAL COMPOUNDS” (SYNGENTA LIMITED, priority 2013, published 2016)

What follows are molecules tested on Alopecurus myosuroides (ALOMY) (assay: Herbicidal glasshouse test, pre-emergence, ALOMY). Details: applied at 1000 g/h, evaluated after 13 days.
Type: in vivo

SMILES | PRE Application ALOMY, percentage damage (five point scale)
Cn1nnnc1NC(=O)c1nn(C)c(=O)n(Cc2cc(Cl)nc(Cl)c2)c1=O [Compound 1.085] | 5 (5=80-100%)
Cn1nnnc1NC(=O)c1nn(C)c(=O)n(Cc2ccc(C(F)F)cc2)c1=O [Compound 1.086] | 5 (5=80-100%)
CC(C)CCn1c(=O)c(C(=O)Nc2nnnn2C)nn(C)c1=O [Compound 1.087] | 5 (5=80-100%)

What follows are molecules tested on Setaria faberi (SETFA) (assay: Herbicidal glasshouse test, pre-emergence, SETFA). Details: applied at 1000 g/h, evaluated after 13 days.
Type: in vivo

SMILES | PRE Application SETFA, percentage damage (five point scale)
Cn1nnnc1NC(=O)c1nn(C)c(=O)n(Cc2cc(Cl)nc(Cl)c2)c1=O [Compound 1.085] | 2 (2=20-39%)
Cn1nnnc1NC(=O)c1nn(C)c(=O)n(Cc2ccc(C(F)F)cc2)c1=O [Compound 1.086] | 2 (2=20-39%)
CC(C)CCn1c(=O)c(C(=O)Nc2nnnn2C)nn(C)c1=O [Compound 1.087] | 5 (5=80-100%)

Each molecule was assayed on Echinochloa crus-galli (ECHCG) (assay: Herbicidal glasshouse test, pre-emergence, ECHCG). Details: applied at 1000 g/h, evaluated after 13 days.
Type: in vivo
Summary of the method: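 In this pre-emergence glasshouse test, ECHCG seeds sown in pots of standard soil were sprayed one day after sowing with the test material in acetone/water (50:50) containing 0.5% Tween 20. Plants were kept at 24/16° C., 14 hours light, 65% humidity, and watered twice daily. Percentage damage was rated after 13 days on a 1–5 scale.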

SMILES | PRE Application ECHCG, percentage damage (five point scale)
Cn1nnnc1NC(=O)c1nn(C)c(=O)n(Cc2cc(Cl)nc(Cl)c2)c1=O [Compound 1.085] | 5 (5=80-100%)
Cn1nnnc1NC(=O)c1nn(C)c(=O)n(Cc2ccc(C(F)F)cc2)c1=O [Compound 1.086] | 5 (5=80-100%)
CC(C)CCn1c(=O)c(C(=O)Nc2nnnn2C)nn(C)c1=O [Compound 1.087] | 5 (5=80-100%)

These molecules were tested on Solanum nigrum (SOLNI) (assay: Herbicidal glasshouse test, pre-emergence, SOLNI). Details: applied at 1000 g/h, evaluated after 13 days.
Type: in vivo
Summary of the method: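 This pre-emergence glasshouse herbicide test used Solanum nigrum sown in standard soil. One day after sowing, pots were sprayed with the compound in acetone/water (50:50) with 0.5% Tween 20. They were then grown at 24/16° C., with 14 hours light and 65% humidity, and watered twice daily. Percentage damage was scored after 13 days on a five point scale, where 5=80-100% and 1=0-19%.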

SMILES | PRE Application SOLNI, percentage damage (five point scale)
Cn1nnnc1NC(=O)c1nn(C)c(=O)n(Cc2cc(Cl)nc(Cl)c2)c1=O [Compound 1.085] | 5 (5=80-100%)
Cn1nnnc1NC(=O)c1nn(C)c(=O)n(Cc2ccc(C(F)F)cc2)c1=O [Compound 1.086] | 5 (5=80-100%)
CC(C)CCn1c(=O)c(C(=O)Nc2nnnn2C)nn(C)c1=O [Compound 1.087] | 5 (5=80-100%)

These molecules were tested on Amaranthus retoflexus (AMARE) (assay: Herbicidal glasshouse test, pre-emergence, AMARE). Details: applied at 1000 g/h, evaluated after 13 days.
Type: in vivo
Summary of the method: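 This pre-emergence glasshouse herbicide test used Amaranthus retoflexus sown in standard soil. After one day of cultivation, an aqueous spray made from the technical ingredient in 50:50 acetone/water with 0.5% Tween 20 was applied. Pots stayed at 24/16° C., 14 hours light, 65% humidity, with twice-daily watering. Damage was rated on a five point scale (1=0-19% up to 5=80-100%).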

SMILES | PRE Application AMARE, percentage damage (five point scale)
Cn1nnnc1NC(=O)c1nn(C)c(=O)n(Cc2cc(Cl)nc(Cl)c2)c1=O [Compound 1.085] | 5 (5=80-100%)
Cn1nnnc1NC(=O)c1nn(C)c(=O)n(Cc2ccc(C(F)F)cc2)c1=O [Compound 1.086] | 5 (5=80-100%)
CC(C)CCn1c(=O)c(C(=O)Nc2nnnn2C)nn(C)c1=O [Compound 1.087] | 5 (5=80-100%)

What follows are molecules tested on Ipomoea hederacea (IPOHE) (assay: Herbicidal glasshouse test, pre-emergence, IPOHE). Details: applied at 1000 g/h, evaluated after 13 days.
Type: in vivo

SMILES | PRE Application IPOHE, percentage damage (five point scale)
Cn1nnnc1NC(=O)c1nn(C)c(=O)n(Cc2cc(Cl)nc(Cl)c2)c1=O [Compound 1.085] | 5 (5=80-100%)
Cn1nnnc1NC(=O)c1nn(C)c(=O)n(Cc2ccc(C(F)F)cc2)c1=O [Compound 1.086] | 5 (5=80-100%)
CC(C)CCn1c(=O)c(C(=O)Nc2nnnn2C)nn(C)c1=O [Compound 1.087] | 5 (5=80-100%)

These molecules were tested on Alopecurus myosuroides (ALOMY) (assay: Herbicidal glasshouse test, post-emergence, ALOMY). Details: applied at 1000 g/h, evaluated after 13 days.
Type: in vivo

SMILES | POST Application ALOMY, percentage damage (five point scale)
Cn1nnnc1NC(=O)c1nn(C)c(=O)n(Cc2cc(Cl)nc(Cl)c2)c1=O [Compound 1.085] | 5 (5=80-100%)
Cn1nnnc1NC(=O)c1nn(C)c(=O)n(Cc2ccc(C(F)F)cc2)c1=O [Compound 1.086] | 5 (5=80-100%)
CC(C)CCn1c(=O)c(C(=O)Nc2nnnn2C)nn(C)c1=O [Compound 1.087] | 5 (5=80-100%)

These molecules were tested on Setaria faberi (SETFA) (assay: Herbicidal glasshouse test, post-emergence, SETFA). Details: applied at 1000 g/h, evaluated after 13 days.
Type: in vivo
Summary of the method: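 This post-emergence glasshouse herbicide test used potted Setaria faberi. Plants were cultivated for 8 days under controlled conditions (24/16° C. day/night, 14 hours light, 65% humidity) and then treated with an aqueous spray made from an acetone/water (50:50) solution containing 0.5% Tween 20. After 13 days of further growth with twice-daily watering, damage was rated on a five point scale (5=80-100%; 1=0-19%).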

SMILES | POST Application SETFA, percentage damage (five point scale)
Cn1nnnc1NC(=O)c1nn(C)c(=O)n(Cc2cc(Cl)nc(Cl)c2)c1=O [Compound 1.085] | 2 (2=20-39%)
Cn1nnnc1NC(=O)c1nn(C)c(=O)n(Cc2ccc(C(F)F)cc2)c1=O [Compound 1.086] | 2 (2=20-39%)
CC(C)CCn1c(=O)c(C(=O)Nc2nnnn2C)nn(C)c1=O [Compound 1.087] | 5 (5=80-100%)

What follows are molecules tested on Echinochloa crus-galli (ECHCG) (assay: Herbicidal glasshouse test, post-emergence, ECHCG). Details: applied at 1000 g/h, evaluated after 13 days.
Type: in vivo
Summary of the method: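 In this post-emergence glasshouse test, barnyard grass (ECHCG) was cultivated for 8 days under controlled conditions (24/16° C. day/night, 14 hours light, 65% humidity). It was then sprayed with an aqueous solution of the technical compound in acetone / water (50:50) with 0.5% Tween 20. Plants were kept under the same conditions and watered twice daily. After 13 days, percentage damage was rated on a five point scale (5=80-100%; 1=0-19%).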

SMILES | POST Application ECHCG, percentage damage (five point scale)
Cn1nnnc1NC(=O)c1nn(C)c(=O)n(Cc2cc(Cl)nc(Cl)c2)c1=O [Compound 1.085] | 5 (5=80-100%)
Cn1nnnc1NC(=O)c1nn(C)c(=O)n(Cc2ccc(C(F)F)cc2)c1=O [Compound 1.086] | 5 (5=80-100%)
CC(C)CCn1c(=O)c(C(=O)Nc2nnnn2C)nn(C)c1=O [Compound 1.087] | 5 (5=80-100%)

These molecules were tested on Solanum nigrum (SOLNI) (assay: Herbicidal glasshouse test, post-emergence, SOLNI). Details: applied at 1000 g/h, evaluated after 13 days.
Type: in vivo

SMILES | POST Application SOLNI, percentage damage (five point scale)
Cn1nnnc1NC(=O)c1nn(C)c(=O)n(Cc2cc(Cl)nc(Cl)c2)c1=O [Compound 1.085] | 5 (5=80-100%)
Cn1nnnc1NC(=O)c1nn(C)c(=O)n(Cc2ccc(C(F)F)cc2)c1=O [Compound 1.086] | 5 (5=80-100%)
CC(C)CCn1c(=O)c(C(=O)Nc2nnnn2C)nn(C)c1=O [Compound 1.087] | 5 (5=80-100%)

What follows are molecules tested on Amaranthus retoflexus (AMARE) (assay: Herbicidal glasshouse test, post-emergence, AMARE). Details: applied at 1000 g/h, evaluated after 13 days.
Type: in vivo
Summary of the method: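 This post-emergence glasshouse test used AMARE plants raised in standard soil for 8 days under controlled conditions (24/16° C. day/night, 14 hours light, 65% humidity). Foliage was sprayed with formulated compound in acetone/water (50:50) containing 0.5% Tween 20. Plants were then watered twice daily, and after 13 days percentage damage was rated on a five point scale.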

SMILES | POST Application AMARE, percentage damage (five point scale)
Cn1nnnc1NC(=O)c1nn(C)c(=O)n(Cc2cc(Cl)nc(Cl)c2)c1=O [Compound 1.085] | 5 (5=80-100%)
Cn1nnnc1NC(=O)c1nn(C)c(=O)n(Cc2ccc(C(F)F)cc2)c1=O [Compound 1.086] | 5 (5=80-100%)
CC(C)CCn1c(=O)c(C(=O)Nc2nnnn2C)nn(C)c1=O [Compound 1.087] | 5 (5=80-100%)

The molecules below were run on Ipomoea hederacea (IPOHE) (assay: Herbicidal glasshouse test, post-emergence, IPOHE). Details: applied at 1000 g/h, evaluated after 13 days.
Type: in vivo

SMILES | POST Application IPOHE, percentage damage (five point scale)
Cn1nnnc1NC(=O)c1nn(C)c(=O)n(Cc2cc(Cl)nc(Cl)c2)c1=O [Compound 1.085] | 5 (5=80-100%)
Cn1nnnc1NC(=O)c1nn(C)c(=O)n(Cc2ccc(C(F)F)cc2)c1=O [Compound 1.086] | 5 (5=80-100%)
CC(C)CCn1c(=O)c(C(=O)Nc2nnnn2C)nn(C)c1=O [Compound 1.087] | 5 (5=80-100%)
